{"source": "patent US7511146B2", "about": "“2-substituted benzimidazole piperidines analogs as selective melanin concentrating hormone receptor antagonists for the treatment of obesity and related disorders” (Schering Corporation, priority 2003, dated 2009)", "molecular_target": "T1, MCH receptor (Homo sapiens, UniProt Q99705)", "T1 construct": "expressed in transfected cells; host or cells: CHO cells", "T1 sequence (Q99705 whole entry)": "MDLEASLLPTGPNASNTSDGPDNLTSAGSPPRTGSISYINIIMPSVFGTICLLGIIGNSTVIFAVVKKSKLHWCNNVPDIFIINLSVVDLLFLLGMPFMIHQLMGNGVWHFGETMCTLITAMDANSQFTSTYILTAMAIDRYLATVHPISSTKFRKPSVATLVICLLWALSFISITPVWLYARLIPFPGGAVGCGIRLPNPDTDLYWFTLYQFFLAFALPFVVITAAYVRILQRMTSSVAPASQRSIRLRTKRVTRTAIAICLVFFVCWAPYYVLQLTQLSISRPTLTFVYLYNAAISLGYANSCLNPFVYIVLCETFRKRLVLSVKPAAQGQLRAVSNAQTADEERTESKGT", "assay": "MCH Receptor Binding Assay ([125I]-MCH, SPA, membranes from CHO cells expressing the MCH receptor)", "conditions": "[125I]-MCH displacement, CHO cell membranes", "method": "MCH Receptor Binding Assay:\nMembranes from CHO cells expressing the MCH receptor were prepared by lysing cells with 5 mM HEPES for 15 min at 4C. Cell lysates were centrifuged ([…], 15 min) and the pellet was resuspended in 5 mM HEPES. For each 96-well plate (Microlite, Dynex Technologies), 1 mg of cell membranes were incubated with 10 mg of wheat germ agglutinin SPA beads (Amersham) for 5 min at 4 C in a volume of 10 ml of binding buffer (25 mM HEPES, 10 mM MGCl2, 10 mM NaCl, 5 mM MnCl2, 0.1% BSA). The membrane/bead mixture was centrifuged (1500×g, 3.5 min), the supernatant was aspirated, and the pellet was resuspended in 10 ml binding buffer. The centrifugation, aspiration and resuspension were then repeated. The membrane/bead mixture (100 μl) was then added to 96-well plates containing 50 μl of 500 pM [^125I]-MCH (NEN) and […] of the appropriate concentration of compound (4× the desired final concentration). Nonspecific binding was determined by including 1 μM MCH in the binding reaction. The binding reaction was incubated at room temperature for 2 h. Plates were then analyzed in a TOPCOUNT microplate scintillation counter (Packard). Data was analyzed and Ki values were determined using GraphPad Prism.", "key": {"[1]": {"conditions": "read-out: Class (Ki, MCH receptor binding)"}}, "note": "Like-named read-outs stand apart in the source and are kept apart here.", "data": [{"smiles": "N#Cc1cccc(-c2ccc(C(NCc3nc4cc(Cl)c(F)cc4[nH]3)C3CCN(C4CCCC4)CC3)cc2)c1", "note": "(centres unmarked) [Compound 17B]", "values": [{"measurement": "Ki", "setting": "[1]", "result": "20 to 50", "unit": "nM"}]}, {"smiles": "N#Cc1cccc(-c2ccc(C(OCc3nc4cc(F)c(Cl)cc4[nH]3)C3CCN(CC4CC4)CC3)cc2)c1", "note": "(centres unmarked) [Compound 34A]", "values": [{"measurement": "Ki", "setting": "[1]", "result": "20 to 50", "unit": "nM"}]}, {"smiles": "N#Cc1cccc(-c2ccc(C(OCc3nc4cc(F)c(Cl)cc4[nH]3)C3CCN(Cc4ccccc4)CC3)cc2)c1", "note": "(centres unmarked) [Compound 34B]", "values": [{"measurement": "Ki", "setting": "[1]", "result": "20 to 50", "unit": "nM"}]}, {"smiles": "N#Cc1cccc(-c2ccc(C3(COc4nc5cc(Cl)c(Cl)cc5[nH]4)CCN(CC4CC4)CC3)cc2)c1", "note": "[Compound 57, 4′-[1-Cyclopropylmethyl-4-(5,6-dichloro-1H-benzoimidazol-2-yloxymethyl)-piperidin-4-yl]-biphenyl-3-carbonitrile]", "values": [{"measurement": "Ki", "setting": "[1]", "result": "50 to 100", "unit": "nM"}]}, {"smiles": "N#Cc1cccc(-c2ccc(C(CSc3nc4cc(F)c(Cl)cc4[nH]3)C3CCNCC3)cc2)c1", "note": "(centres unmarked) [Compound 48]", "values": [{"measurement": "Ki", "setting": "[1]", "result": "> 100", "unit": "nM"}]}, {"smiles": "N#Cc1cccc(-c2ccc(C(NCc3nc4cc(Cl)c(Cl)cc4[nH]3)C3CCNCC3)cc2)c1", "note": "(centres unmarked) [Compound 16A]", "values": [{"measurement": "Ki", "setting": "[1]", "result": "< 20", "unit": "nM"}]}, {"smiles": "N#Cc1cccc(-c2ccc(C(NCc3nc4cc(Cl)c(F)cc4[nH]3)C3CCNCC3)cc2)c1", "note": "(centres unmarked) [Compound 16B]", "values": [{"measurement": "Ki", "setting": "[1]", "result": "20 to 50", "unit": "nM"}]}, {"smiles": "CC(C)(C)OC(=O)N1CCC(OCc2nc3cc(F)c(F)cc3[nH]2)(c2ccc(-c3cccc(C#N)c3)cc2)CC1", "note": "[Compound 63, 4-(3′-Cyano-biphenyl-4-yl)-4-(5,6-difluoro-1H-benzoimidazol-2-ylmethoxy)-piperidine-1-carboxylic acid tert-butyl ester]", "values": [{"measurement": "Ki", "setting": "[1]", "result": "> 100", "unit": "nM"}]}, {"smiles": "N#Cc1cccc(-c2ccc(C3(CNc4nc5cc(F)c(F)cc5[nH]4)CCNCC3)cc2)c1", "note": "[Compound 8A]", "values": [{"measurement": "Ki", "setting": "[1]", "result": "20 to 50", "unit": "nM"}]}, {"smiles": "N#Cc1cccc(-c2ccc(C(CNc3nc4cc(F)c(F)cc4[nH]3)C3CCN(Cc4ccccc4)CC3)cc2)c1", "note": "(centres unmarked) [Compound 28B]", "values": [{"measurement": "Ki", "setting": "[1]", "result": "< 20", "unit": "nM"}]}, {"smiles": "CC(=O)N1CCC(C(OCc2nc3cc(Cl)c(Cl)cc3[nH]2)c2ccc(-c3cccc(C#N)c3)cc2)CC1", "note": "(centres unmarked) [Compound 44]", "values": [{"measurement": "Ki", "setting": "[1]", "result": "> 100", "unit": "nM"}]}, {"smiles": "N#Cc1cccc(-c2ccc(C(CCc3nc4cc(Cl)c(Cl)cc4[nH]3)C3CCN(Cc4ccccc4)CC3)cc2)c1", "note": "(centres unmarked) [Compound 75A]", "values": [{"measurement": "Ki", "setting": "[1]", "result": "50 to 100", "unit": "nM"}]}, {"smiles": "CCNC(=O)N1CCC(COc2nc3cc(Cl)c(Cl)cc3[nH]2)(c2ccc(-c3cccc(C#N)c3)cc2)CC1", "note": "[Compound 58, 4-(3′-Cyano-biphenyl-4-yl)-4-(5,6-dichloro-1H-benzoimidazol-2-yloxymethyl)-piperidine-1-carboxylic acid ethylamide]", "values": [{"measurement": "Ki", "setting": "[1]", "result": "> 100", "unit": "nM"}]}, {"smiles": "N#Cc1cccc(-c2ccc(C(OCc3nc4cc(F)c(Cl)cc4[nH]3)C3CCN(CCCCCO)CC3)cc2)c1", "note": "(centres unmarked) [Compound 34D]", "values": [{"measurement": "Ki", "setting": "[1]", "result": "> 100", "unit": "nM"}]}, {"smiles": "CC(C)(C)OC(=O)N1CCC(C(NCc2nc3cc(F)c(Cl)cc3[nH]2)c2ccc(-c3cccc(C#N)c3)cc2)CC1", "note": "(centres unmarked) [Compound 15B]", "values": [{"measurement": "Ki", "setting": "[1]", "result": "20 to 50", "unit": "nM"}]}, {"smiles": "N#Cc1cccc(-c2ccc(C3(CNc4nc5cc(F)c(F)cc5[nH]4)CCN(CC4CC4)CC3)cc2)c1", "note": "[Compound 8B]", "values": [{"measurement": "Ki", "setting": "[1]", "result": "20 to 50", "unit": "nM"}]}, {"smiles": "N#Cc1cccc(-c2ccc(C(CCc3nc4c(Cl)cc(Cl)cc4[nH]3)C3CCN(Cc4ccccc4)CC3)cc2)c1", "note": "(centres unmarked) [Compound 75C]", "values": [{"measurement": "Ki", "setting": "[1]", "result": "20 to 50", "unit": "nM"}]}, {"smiles": "COC(=O)N1CCC(CNc2nc3cc(F)c(F)cc3[nH]2)(c2ccc(-c3cccc(C#N)c3)cc2)CC1", "note": "[Compound 8D]", "values": [{"measurement": "Ki", "setting": "[1]", "result": "> 100", "unit": "nM"}]}, {"smiles": "N#Cc1cccc(-c2ccc(C3(CCc4nc5cc(Cl)c(F)cc5[nH]4)CCN(CC4CC4)CC3)cc2)c1", "note": "[Compound 11C]", "values": [{"measurement": "Ki", "setting": "[1]", "result": "> 100", "unit": "nM"}]}, {"smiles": "N#Cc1cccc(-c2ccc(C(CCc3nc4cc(Cl)c(F)cc4[nH]3)C3CCN(Cc4ccccc4)CC3)cc2)c1", "note": "(centres unmarked) [Compound 75B]", "values": [{"measurement": "Ki", "setting": "[1]", "result": "20 to 50", "unit": "nM"}]}, {"smiles": "N#Cc1cccc(-c2ccc(C3(NCc4nc5ccccc5[nH]4)CCN(C4CCCC4)CC3)cc2)c1", "note": "[Compound 67B]", "values": [{"measurement": "Ki", "setting": "[1]", "result": "> 100", "unit": "nM"}]}, {"smiles": "N#Cc1cccc(-c2ccc(C3(COc4nc5cc(Cl)c(Cl)cc5[nH]4)CCNCC3)cc2)c1", "note": "[Compound 54, 4′-[4-(5,6-Dichloro-1H-benzoimidazol-2-yloxymethyl)-piperidin-4-yl]-biphenyl-3-carbonitrile]", "values": [{"measurement": "Ki", "setting": "[1]", "result": "50 to 100", "unit": "nM"}]}, {"smiles": "N#Cc1cccc(-c2ccc(C3(CCc4nc5cc(F)c(F)cc5[nH]4)CCN(CC4CC4)CC3)cc2)c1", "note": "[Compound 11A]", "values": [{"measurement": "Ki", "setting": "[1]", "result": "> 100", "unit": "nM"}]}, {"smiles": "N#Cc1cccc(-c2ccc(C(OCc3nc4cc(F)c(Cl)cc4[nH]3)C3CCN(C4CCCC4)CC3)cc2)c1", "note": "(centres unmarked) [Compound 34C]", "values": [{"measurement": "Ki", "setting": "[1]", "result": "20 to 50", "unit": "nM"}]}, {"smiles": "N#Cc1cccc(-c2ccc(C(NCc3nc4cc(Cl)c(F)cc4[nH]3)C3CCN(CC4CC4)CC3)cc2)c1", "note": "(centres unmarked) [Compound 17A]", "values": [{"measurement": "Ki", "setting": "[1]", "result": "< 20", "unit": "nM"}]}, {"smiles": "CS(=O)(=O)N1CCC(C(OCc2nc3cc(Cl)c(Cl)cc3[nH]2)c2ccc(-c3cccc(C#N)c3)cc2)CC1", "note": "(centres unmarked) [Compound 39]", "values": [{"measurement": "Ki", "setting": "[1]", "result": "> 100", "unit": "nM"}]}, {"smiles": "CS(=O)(=O)N1CCC(COc2nc3cc(Cl)c(Cl)cc3[nH]2)(c2ccc(-c3cccc(C#N)c3)cc2)CC1", "note": "[Compound 56, 4′-[4-(5,6-Dichloro-1H-benzoimidazol-2-yloxymethyl)-1-methanesulfonyl-piperidin-4-yl]-biphenyl-3-carbonitrile]", "values": [{"measurement": "Ki", "setting": "[1]", "result": "> 100", "unit": "nM"}]}, {"smiles": "N#Cc1cccc(-c2ccc(C(OCc3nc4cc(F)c(Cl)cc4[nH]3)C3CCNCC3)cc2)c1", "note": "(centres unmarked) [Compound 33]", "values": [{"measurement": "Ki", "setting": "[1]", "result": "20 to 50", "unit": "nM"}]}, {"smiles": "N#Cc1cccc(-c2ccc(C(CNc3nc4cc(Cl)c(Cl)cc4[nH]3)C3CCN(Cc4ccccc4)CC3)cc2)c1", "note": "(centres unmarked) [Compound 28A]", "values": [{"measurement": "Ki", "setting": "[1]", "result": "< 20", "unit": "nM"}, {"measurement": "Ki", "setting": "read-out: Ki value", "result": 3, "unit": "nM"}]}, {"smiles": "N#Cc1cccc(-c2ccc(C3(CCc4nc5cc(Cl)c(F)cc5[nH]4)CCNCC3)cc2)c1", "note": "[Compound 11B]", "values": [{"measurement": "Ki", "setting": "[1]", "result": "> 100", "unit": "nM"}]}, {"smiles": "CC(C)(C)OC(=O)N1CCC(COc2nc3cc(Cl)c(Cl)cc3[nH]2)(c2ccc(-c3cccc(C#N)c3)cc2)CC1", "note": "[Compound 53, 4-(3′-cyano-biphenyl-4-yl)-4-(5,6-dichloro-1H-benzoimidazol-2-yloxymethyl)-piperidine-1-carboxylic acid tert-butyl ester]", "values": [{"measurement": "Ki", "setting": "[1]", "result": "> 100", "unit": "nM"}]}, {"smiles": "CC(C)(C)OC(=O)N1CCC(C(NCc2nc3cc(Cl)c(Cl)cc3[nH]2)c2ccc(-c3cccc(C#N)c3)cc2)CC1", "note": "(centres unmarked) [Compound 15A]", "values": [{"measurement": "Ki", "setting": "[1]", "result": "50 to 100", "unit": "nM"}]}, {"smiles": "N#Cc1cccc(-c2ccc(C3(CNc4nc5cc(F)c(F)cc5[nH]4)CCN(C4CCC4)CC3)cc2)c1", "note": "[Compound 8C]", "values": [{"measurement": "Ki", "setting": "[1]", "result": "20 to 50", "unit": "nM"}]}, {"smiles": "N#Cc1cccc(-c2ccc(C3(NCc4nc5cc(Cl)c(Cl)cc5[nH]4)CCN(C4CCCC4)CC3)cc2)c1", "note": "[Compound 67A, 4′-{1-Cyclopentyl-4-[(5,6-dichloro-1H-benzoimidazol-2-ylmethyl)-amino]-piperidin-4-yl}-biphenyl-3-carbonitrile]", "values": [{"measurement": "Ki", "setting": "[1]", "result": "> 100", "unit": "nM"}]}]}
